{"source": "paper PMC11365428", "about": "(The Journal of Biological Chemistry, 2024)", "key": {"[1]": {"test_system": "putative neuropeptide FF receptor (apNPFFR)", "test": "IP1 accumulation assay, CHO-K1 cells transiently expressing putative neuropeptide FF receptor", "format": "cell-based, Aplysia californica", "settings": "10^-5 M compared with 10^-10 M (control); n = 3; no Gαq cotransfection", "method": "To express putative Aplysia receptors transiently in CHO-K1 cells, the cDNAs were subcloned into the pcDNA3.1(+) or pcDNA3.1(+)-FLAG (for ELISA experiments only, see “Cell surface expression analysis by ELISA” section) expression vector. On the day before transfection, the CHO-K1 cells were passaged into 60 mm diameter tissue culture–treated dishes, and the transfection experiments were performed when the cells were grown to 70 to 90% confluence. CHO-K1 cells were transfected with the cDNA plasmid constructs using Turbofect Transfection reagent (Thermo Fisher Scientific, R0531), following the manufacturer’s instructions. In brief, 4 μg of the putative receptor plasmids [in pcDNA3.1(+) or pcDNA3.1(+)-FLAG] were mixed with 400 μl of Opti-MEM (Gibco, 11058021), followed by the addition of 15 μl of TurboFect Transfection reagent and incubated at room temperature for 15 min. The DNA/TurboFect mixture dropwise was then added to the dish, and the cells were incubated at 37 °C in a humidified incubator containing 5% CO2 overnight.\nThe next day, transfected cells were trypsinized and reseeded in an opaque white 96-well half-area (Corning, 3688) or 384-well tissue culture–treated plates (Corning, 3570) at a density of 20,000 cells/well in F-12K and 10% FBS and incubated at 37 °C in a humidified incubator containing 5% CO2 overnight. On the third day, the activation of the putative receptors was detected by monitoring intracellular IP1 concentration using an IP-One Gq kit (Cisbio, 62IPAPEB) in Tecan Spark. Except for using 0.5x reagent, all other procedures were performed following the manufacturer’s instructions. IP1 accumulation assay measures the accumulation of IP1, which is hydrolyzed from the second messenger, and inositol triphosphate. Inositol triphosphate is generated by the Gαq pathway when a GPCR is activated by an appropriate ligand."}, "[2]": {"molecular_target": "T1, apTKRPR-B (Aplysia californica, UniProt A0AAU7STS1)", "T1 sequence (A0AAU7STS1 1-447)": "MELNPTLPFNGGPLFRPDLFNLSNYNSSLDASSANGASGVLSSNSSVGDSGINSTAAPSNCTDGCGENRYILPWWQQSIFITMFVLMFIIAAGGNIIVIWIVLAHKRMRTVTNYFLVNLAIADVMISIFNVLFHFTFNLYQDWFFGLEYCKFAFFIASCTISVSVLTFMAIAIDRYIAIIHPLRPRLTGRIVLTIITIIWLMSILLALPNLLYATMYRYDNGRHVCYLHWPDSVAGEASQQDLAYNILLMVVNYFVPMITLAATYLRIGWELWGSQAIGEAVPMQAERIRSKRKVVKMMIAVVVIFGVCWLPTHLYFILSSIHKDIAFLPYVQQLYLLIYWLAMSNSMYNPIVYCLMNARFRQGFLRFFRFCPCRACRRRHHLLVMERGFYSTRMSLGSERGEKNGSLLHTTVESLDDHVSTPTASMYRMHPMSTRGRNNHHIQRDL", "test": "IP1 accumulation assay, CHO-K1 cells transiently expressing apTKRPR-B", "format": "cell-based", "settings": "for IP1 response of apTKRPR-B in screening: 10^-5 M compared with 10^-10 M (control), no Gαq cotransfection", "method": "(§1) To express putative Aplysia receptors transiently in CHO-K1 cells, the cDNAs were subcloned into the pcDNA3.1(+) or pcDNA3.1(+)-FLAG (for ELISA experiments only, see “Cell surface expression analysis by ELISA” section) expression vector. On the day before transfection, the CHO-K1 cells were passaged into 60 mm diameter tissue culture–treated dishes, and the transfection experiments were performed when the cells were grown to 70 to 90% confluence. CHO-K1 cells were transfected with the cDNA plasmid constructs using Turbofect Transfection reagent (Thermo Fisher Scientific, R0531), following the manufacturer’s instructions. […] The DNA/TurboFect mixture dropwise was then added to the dish, and the cells were incubated at 37 °C in a humidified incubator containing 5% CO2 overnight.\n(§2) On the third day, the activation of the putative receptors was detected by monitoring intracellular IP1 concentration using an IP-One Gq kit (Cisbio, 62IPAPEB) in Tecan Spark. Except for using 0.5x reagent, all other procedures were performed following the manufacturer’s instructions. IP1 accumulation assay measures the accumulation of IP1, which is hydrolyzed from the second messenger, and inositol triphosphate. Inositol triphosphate is generated by the Gαq pathway when a GPCR is activated by an appropriate ligand."}, "[3]": {"molecular_target": "T2, apTKRPR-A (Aplysia californica, UniProt A0AAU7SSZ1)", "T2 sequence (A0AAU7SSZ1 1-398)": "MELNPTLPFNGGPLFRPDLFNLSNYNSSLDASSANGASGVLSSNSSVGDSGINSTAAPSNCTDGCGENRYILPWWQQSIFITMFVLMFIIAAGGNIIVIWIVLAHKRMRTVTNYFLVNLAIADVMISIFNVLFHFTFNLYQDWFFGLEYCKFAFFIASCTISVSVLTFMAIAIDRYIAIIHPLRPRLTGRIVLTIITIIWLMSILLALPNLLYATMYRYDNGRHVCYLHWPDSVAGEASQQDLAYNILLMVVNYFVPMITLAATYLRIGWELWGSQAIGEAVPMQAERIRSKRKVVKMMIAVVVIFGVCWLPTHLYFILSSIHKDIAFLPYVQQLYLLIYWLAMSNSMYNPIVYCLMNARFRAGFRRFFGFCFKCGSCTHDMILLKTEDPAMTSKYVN", "test": "IP1 accumulation assay, CHO-K1 cells transiently expressing apTKRPR-A", "format": "cell-based", "settings": "for IP1 response of apTKRPR-A in screening: 10^-5 M compared with 10^-10 M (control), no Gαq cotransfection", "method": "as §1, §2"}, "[4]": {"settings": "co-transfected with Gαq (Gα16), 10^-5 M compared with 10^-10 M, n = 3"}}, "note": "No end group written: not given here."}
{"substance": "H-QPHLGFHGSR-NH2 [apTKRP-2a]", "values": [{"measurement": "IP1 response of putative apNPFFR in screening", "setting": "[1]", "value": "did not respond"}, {"measurement": "IP1 response of apTKRPR-B in screening", "setting": "[2]; n = 3", "value": "responded"}, {"measurement": "EC50", "setting": "[2]; log10 of EC50 in M, negative, IP1 accumulation, CHO-K1, mean ± SD of at least three independent experiments (apTKRP-1 n = 9; apTKRP-2a n = 11; apTKRP-2b n = 19; analogs, apTKRP-2b-OH n = 4), read-out: apTKRPR-B log[EC50] (converted)", "value": 12.9, "unit": "nM"}, {"measurement": "IP1 response of apTKRPR-A in screening", "setting": "[3]; n = 3", "value": "responded"}, {"measurement": "EC50", "setting": "[3]; log10 of EC50 in M, negative, IP1 accumulation, CHO-K1, mean ± SD of at least three independent experiments (apTKRP-1 n = 9; apTKRP-2a n = 11; apTKRP-2b n = 19; analogs, apTKRP-2b-OH n = 4), read-out: apTKRPR-A log[EC50] (converted)", "value": 107, "unit": "nM"}]}
{"substance": "FMPGLESLLLAKYYQDAKW [apTKRPG-DP]", "values": [{"measurement": "IP1 response of putative apNPFFR in screening", "setting": "[1]", "value": "did not respond"}, {"measurement": "IP1 response of apTKRPR-B in screening", "setting": "[2]; n = 3", "value": "did not activate"}, {"measurement": "IP1 response of apTKRPR-B in screening with Gαq cotransfection", "setting": "[2]; [4]", "value": "did not activate"}, {"measurement": "IP1 response of apTKRPR-A in screening", "setting": "[3]; n = 3", "value": "did not activate"}, {"measurement": "IP1 response of apTKRPR-A in screening with Gαq cotransfection", "setting": "[3]; [4]", "value": "did not activate"}]}
